Some test systems named below: K562; SN12C; OVCAR-5; NCI-H23; MDA-N; COLO 205; NCI-H226; SR; HCC 2998; BT-549; SK-OV-3; MDA-MB-231; CCRF-CEM; SNB-19; Malme-3M; SF-539; SNB-75; 786-0; SF-295.
Common to all, as to assay: NCI-60 cell line screen, 48 h

We go through eleven compounds from ChEMBL document CHEMBL1201862, “PubChem BioAssay data set” (2004).

Where a name gives a salt, the structure may show the parent alone.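 Cultured in 96-well plates, cells were exposed to test compound for 48 hours across five concentrations. GI50 is the concentration that inhibits growth by half.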 Active and inactive are the calls of the source. Cut-off read from the data, not from the text of the source: active = GI50 up to about 1.1 µM and inactive = higher.

As for `CSc1c(C#N)c(O)nc(N)c1C(=O)Nc1ccc(C)cc1`, the GI50 in the assay with K562 is > 100 µM (inactive); in the assay on SN12C, > 100 µM (inactive); in the assay on OVCAR-5 it was > 100 µM (inactive); with NCI-H23, 90.6 µM (inactive); in the assay on MDA-N it was > 100 µM (inactive); in the assay on COLO 205 it was > 100 µM (inactive). Besides, the GI50 with NCI-H226 was 34.4 µM (inactive); with SR, > 100 µM (inactive); in the assay with HCC 2998, > 100 µM (inactive); in the assay on BT-549, > 100 µM (inactive); with SK-OV-3, > 100 µM (inactive); with MDA-MB-231, > 100 µM (inactive). Also, the GI50 is 97.5 µM (inactive) with CCRF-CEM; > 100 µM (inactive) in the assay with SNB-19; > 100 µM (inactive) with Malme-3M; > 100 µM (inactive) with SF-539; > 100 µM (inactive) in the assay with SNB-75; > 100 µM (inactive) with 786-0.

Take `CCN(CC)CCNc1ccc(C)c2sc3ccccc3c(=O)c12` [LUCANTHONE HYDROCHLORIDE]: the GI50 is 1.97 µM (inactive) with K562; 2.67 µM (inactive) with SN12C; 3.05 µM (inactive) in the assay on OVCAR-5; 3.33 µM (inactive) in the assay on NCI-H23; 1.95 µM (inactive) with MDA-N; 1.67 µM (inactive) with COLO 205. For the same compound, the GI50 in the assay with NCI-H226 is 5.04 µM (inactive); with SR, 2.33 µM (inactive); with HCC 2998, 3.64 µM (inactive); in the assay on BT-549, 4.36 µM (inactive); in the assay on SK-OV-3 it was 6.71 µM (inactive); in the assay on SF-295, 2.18 µM (inactive). The GI50 in the assay on MDA-MB-231 was 2.85 µM (inactive); in the assay with CCRF-CEM, 1.91 µM (inactive); with SNB-19, 2.54 µM (inactive); in the assay on Malme-3M, 3.84 µM (inactive); in the assay on SF-539, 2.75 µM (inactive); in the assay with SNB-75 it was 2.06 µM (inactive). Also, the GI50 in the assay on 786-0 was 3.02 µM (inactive).

Consider `COc1cc(OC)c2c(c1-c1ccc(C)cc1)CC(C)N(Cc1ccccc1)[C@H]2C` (stereo partly drawn), for which the GI50 in the assay on K562 is 22.1 µM (inactive); with SN12C, 35.9 µM (inactive); with NCI-H23, 35 µM (inactive); with MDA-N, 33.7 µM (inactive); with COLO 205, 32.3 µM (inactive); in the assay on NCI-H226, 49.4 µM (inactive). The GI50 with SR is 30.3 µM (inactive); in the assay on HCC 2998, 31.1 µM (inactive); in the assay on BT-549 it was 28.2 µM (inactive); with SK-OV-3 it was 31.8 µM (inactive); in the assay with SF-295, 70.3 µM (inactive); in the assay with MDA-MB-231 it was 51.3 µM (inactive). For the same compound, the GI50 in the assay with CCRF-CEM is 7.76 µM (inactive); in the assay on SNB-19, 67.9 µM (inactive); in the assay with Malme-3M it was 19.3 µM (inactive); in the assay with SF-539 it was 32.1 µM (inactive); in the assay with SNB-75 it was 6.9 µM (inactive); in the assay with 786-0, 33.7 µM (inactive).

Consider `CC(=O)OC12CC(C)C3(O)C4C=C(C)C(=O)[C@@]4(O)CC(CO)=C[C@H]3C1C2(C)C` (stereo partly drawn), for which the GI50 was 0.494 µM (active) with K562; > 100 µM (inactive) in the assay on SN12C; > 10 µM (inactive) in the assay on OVCAR-5; > 10 µM (inactive) in the assay with NCI-H23; 2.69 µM (inactive) with MDA-N; 1.88 µM (inactive) with COLO 205. The GI50 is > 10 µM (inactive) in the assay with NCI-H226; > 10 µM (inactive) in the assay on SR; 4.21 µM (inactive) in the assay with HCC 2998; > 10 µM (inactive) in the assay on BT-549; 794 µM (inactive) in the assay on SK-OV-3; > 10 µM (inactive) in the assay on MDA-MB-231. Besides, the GI50 in the assay on CCRF-CEM is > 1000 µM (inactive); in the assay on SNB-19, > 10 µM (inactive); in the assay on Malme-3M, > 10 µM (inactive); with SF-539, > 10 µM (inactive); with SNB-75, > 10 µM (inactive); in the assay with 786-0 it was > 10 µM (inactive).

For `O=C(O)Cc1c[nH]c2ccc(F)cc12`, the GI50 in the assay on K562, in the assay with SN12C, in the assay on OVCAR-5, in the assay with NCI-H23, with MDA-N and in the assay on COLO 205 was > 100 µM (inactive) throughout. In addition, the GI50 in the assay with NCI-H226, in the assay on SR, with HCC 2998, with BT-549, in the assay on SK-OV-3 and with SF-295 was > 100 µM (inactive) each time. In addition, the GI50 in the assay on MDA-MB-231, in the assay on CCRF-CEM, in the assay on SNB-19, in the assay on SF-539, with SNB-75 and in the assay with 786-0 was > 100 µM (inactive) in each case.

On to `N#CCCNCCN(CCN(C(=O)Nc1ccccc1)c1ccccc1)C(=O)Nc1ccccc1`, for which the GI50 in the assay with K562 was 67 µM (inactive); in the assay with SN12C, 78.9 µM (inactive); in the assay with OVCAR-5, 64.6 µM (inactive); in the assay with NCI-H23, 33.2 µM (inactive); in the assay on MDA-N, 47 µM (inactive); in the assay on COLO 205, 20.2 µM (inactive). In addition, the GI50 in the assay on NCI-H226 is 54.7 µM (inactive); with SR, 34.2 µM (inactive); in the assay with HCC 2998, 16.1 µM (inactive); in the assay with BT-549 it was 38.4 µM (inactive); with SK-OV-3 it was > 100 µM (inactive); with SF-295, 51.8 µM (inactive). The GI50 in the assay with MDA-MB-231 was > 100 µM (inactive); with CCRF-CEM, 78.9 µM (inactive); in the assay with SNB-19 it was 83.2 µM (inactive); in the assay on Malme-3M, 23.4 µM (inactive); with SNB-75, 25.8 µM (inactive); in the assay with 786-0, 37.1 µM (inactive).

On to `CCN(CC)c1ccc2cc(C(N)=S)c(=N)oc2c1`, for which the GI50 in the assay on K562, with SN12C, in the assay with OVCAR-5, with MDA-N, in the assay with COLO 205 and in the assay with NCI-H226 was > 100 µM (inactive) throughout. Also, the GI50 with SR was > 100 µM (inactive); in the assay with HCC 2998, > 100 µM (inactive); in the assay on BT-549 it was 37.9 µM (inactive); in the assay on SK-OV-3, > 100 µM (inactive); with SF-295, > 100 µM (inactive); in the assay with MDA-MB-231, > 100 µM (inactive). The GI50 with CCRF-CEM is > 100 µM (inactive); with SNB-19, > 100 µM (inactive); with Malme-3M it was 87.9 µM (inactive); with SF-539 it was > 100 µM (inactive); in the assay with SNB-75, > 100 µM (inactive); in the assay with 786-0, > 100 µM (inactive).

As for `CN(C)C(=S)SCC(=O)Nc1ccccc1`, the GI50 with K562, in the assay on SN12C, in the assay with OVCAR-5, in the assay with NCI-H23, in the assay on MDA-N and in the assay on COLO 205 was > 100 µM (inactive) throughout. In addition, the GI50 with NCI-H226, in the assay with SR, in the assay on HCC 2998, in the assay on BT-549, in the assay on SK-OV-3 and in the assay on SF-295 was > 100 µM (inactive) each time. Moreover, the GI50 in the assay with MDA-MB-231, with CCRF-CEM, with Malme-3M, with SNB-75 and in the assay on 786-0 was > 100 µM (inactive) each time.

With `OCC(CN1CCCCC1)(CN1CCCCC1)CN1CCCCC1`, the GI50 in the assay with K562, in the assay with SN12C, with OVCAR-5, in the assay with NCI-H23, in the assay on MDA-N and in the assay on COLO 205 was > 100 µM (inactive) each time. The GI50 with NCI-H226 is > 100 µM (inactive); in the assay with SR, > 100 µM (inactive); in the assay on HCC 2998 it was > 100 µM (inactive); in the assay on BT-549, > 100 µM (inactive); with SK-OV-3, > 100 µM (inactive); in the assay on SF-295, > 10 µM (inactive). Besides, the GI50 in the assay with MDA-MB-231, in the assay with CCRF-CEM, in the assay on SNB-19, in the assay with Malme-3M, in the assay with SF-539 and with 786-0 was > 100 µM (inactive) each time.

`COc1ccc(OC)c(N2C(=O)CSC2c2cc(OC)c(OC)c(OC)c2)c1` (stereo not drawn): the GI50 with K562 is 83.8 µM (inactive); in the assay on SN12C, > 100 µM (inactive); with OVCAR-5, > 100 µM (inactive); with NCI-H23 it was > 100 µM (inactive); with MDA-N it was 33.4 µM (inactive); with COLO 205, > 100 µM (inactive). The GI50 is > 100 µM (inactive) with NCI-H226; 46 µM (inactive) in the assay on SR; > 100 µM (inactive) with HCC 2998; 48.4 µM (inactive) in the assay with BT-549; > 100 µM (inactive) with SK-OV-3; > 100 µM (inactive) in the assay with SF-295. Moreover, the GI50 is > 100 µM (inactive) in the assay on MDA-MB-231; 71.8 µM (inactive) in the assay on CCRF-CEM; > 100 µM (inactive) with SNB-19; > 100 µM (inactive) with Malme-3M; > 100 µM (inactive) in the assay on SF-539; > 100 µM (inactive) in the assay on 786-0.

As to `C=C1C(=O)[C@]23[C@H](O)[C@H]1CC[C@H]2[C@@]12CO[C@@]3(O)C[C@@H]1C(C)(C)CC[C@@H]2O` [MEGATHYRIN A], the GI50 in the assay with K562 was 7.41 µM (inactive); in the assay on SN12C, 7.85 µM (inactive); with OVCAR-5, > 25 µM (inactive); with NCI-H23, 7.4 µM (inactive); in the assay with MDA-N, 7.69 µM (inactive); in the assay with COLO 205, 3.98 µM (inactive). The GI50 was 8.22 µM (inactive) with NCI-H226; 7.55 µM (inactive) in the assay on SR; 8.69 µM (inactive) with HCC 2998; 4.37 µM (inactive) in the assay with BT-549; 12.3 µM (inactive) in the assay on SF-295; 5.66 µM (inactive) with MDA-MB-231. In addition, the GI50 is 7.59 µM (inactive) with CCRF-CEM; 21.2 µM (inactive) in the assay on SNB-19; 6.71 µM (inactive) with Malme-3M; 6.79 µM (inactive) with SF-539; 4.91 µM (inactive) with SNB-75; 9.57 µM (inactive) with 786-0.
